Patent US20240376121A1, “COMPOUNDS AND USES THEREOF” (Foghorn Therapeutics Inc., priority 2021, published 2024)

Experiments:
HiBit-BRM fusion protein = target: T1, HiBit-BRM fusion protein (Homo sapiens, UniProt P51531); assay: HiBiT-BRM cell-based degradation assay (Nano-Glo HiBiT Lytic Detection); settings: stable HeLa cell line expressing HiBiT-BRM, 24 h incubation; for BRM HiBit Degradation Maximum (%): top dose 30 μM; for DC50: read-out: BRM HiBit Degradation IC50
T1 construct: expressed in transfected cells
T1 sequence (P51531 whole entry, the tested form may be a part): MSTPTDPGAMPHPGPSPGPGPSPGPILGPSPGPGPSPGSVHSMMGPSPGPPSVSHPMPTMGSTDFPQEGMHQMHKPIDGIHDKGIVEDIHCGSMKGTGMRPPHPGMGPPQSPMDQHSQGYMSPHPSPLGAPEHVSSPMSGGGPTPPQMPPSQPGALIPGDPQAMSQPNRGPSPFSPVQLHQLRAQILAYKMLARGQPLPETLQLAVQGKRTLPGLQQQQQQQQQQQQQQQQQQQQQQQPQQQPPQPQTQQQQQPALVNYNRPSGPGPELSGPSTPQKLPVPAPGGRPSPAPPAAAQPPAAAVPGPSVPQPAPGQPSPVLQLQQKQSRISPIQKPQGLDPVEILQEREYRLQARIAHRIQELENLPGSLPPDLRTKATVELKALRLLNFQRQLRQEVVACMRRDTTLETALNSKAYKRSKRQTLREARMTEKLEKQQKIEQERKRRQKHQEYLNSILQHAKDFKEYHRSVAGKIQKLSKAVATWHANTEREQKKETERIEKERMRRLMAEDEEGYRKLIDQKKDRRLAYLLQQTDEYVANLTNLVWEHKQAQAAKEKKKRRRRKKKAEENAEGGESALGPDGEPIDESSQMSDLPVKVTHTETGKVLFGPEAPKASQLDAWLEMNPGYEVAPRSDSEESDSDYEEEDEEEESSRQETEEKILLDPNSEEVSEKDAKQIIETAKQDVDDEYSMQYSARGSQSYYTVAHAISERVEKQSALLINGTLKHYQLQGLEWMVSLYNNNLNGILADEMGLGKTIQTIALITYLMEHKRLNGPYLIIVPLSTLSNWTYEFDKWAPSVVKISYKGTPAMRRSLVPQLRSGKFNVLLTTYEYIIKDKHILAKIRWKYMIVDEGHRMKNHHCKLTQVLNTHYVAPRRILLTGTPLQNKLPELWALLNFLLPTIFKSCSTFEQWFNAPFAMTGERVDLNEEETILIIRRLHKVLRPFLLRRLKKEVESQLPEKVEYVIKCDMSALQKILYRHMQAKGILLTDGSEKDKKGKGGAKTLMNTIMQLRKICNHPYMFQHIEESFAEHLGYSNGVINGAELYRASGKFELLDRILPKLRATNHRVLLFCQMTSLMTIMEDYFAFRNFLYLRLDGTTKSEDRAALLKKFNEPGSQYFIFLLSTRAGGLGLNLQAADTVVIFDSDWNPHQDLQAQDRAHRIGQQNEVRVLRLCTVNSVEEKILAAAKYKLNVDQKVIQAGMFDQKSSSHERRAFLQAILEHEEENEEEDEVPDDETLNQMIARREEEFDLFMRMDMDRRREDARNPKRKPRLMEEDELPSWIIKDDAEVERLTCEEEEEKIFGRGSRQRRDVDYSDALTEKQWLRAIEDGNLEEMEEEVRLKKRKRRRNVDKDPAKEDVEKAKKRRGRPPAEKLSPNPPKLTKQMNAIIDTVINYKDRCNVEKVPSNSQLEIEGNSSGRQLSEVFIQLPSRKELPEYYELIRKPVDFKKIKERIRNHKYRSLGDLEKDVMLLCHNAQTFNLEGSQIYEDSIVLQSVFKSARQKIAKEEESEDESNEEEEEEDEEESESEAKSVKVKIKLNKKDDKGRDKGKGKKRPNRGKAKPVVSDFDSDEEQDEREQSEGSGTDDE
Summary of the method: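 Percent BRM loss was derived from HiBiT luminescence relative to DMSO-treated cells and cells given 2 μM of a known BRM/BRG1 degrader. Treatment lasted 24 h in HiBiT-BRM HeLa cells, with a top final concentration of 30 μM.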

[1] = target: T2, HiBit-BRG1 fusion protein (Homo sapiens, UniProt P51532); assay: HiBiT-BRG1 cell-based degradation assay (Nano-Glo HiBiT Lytic Detection); settings: stable HeLa cell line expressing HiBit-BRG1 and LgBit, 24 h incubation; for Dmax: top dose 30 μM, read-out: BRG1 HiBit Degradation Maximum (%); for DC50: read-out: BRMG1 HiBit Degradation IC50
T2 construct: expressed in transfected cells
T2 sequence (P51532 whole entry, the tested form may be a part): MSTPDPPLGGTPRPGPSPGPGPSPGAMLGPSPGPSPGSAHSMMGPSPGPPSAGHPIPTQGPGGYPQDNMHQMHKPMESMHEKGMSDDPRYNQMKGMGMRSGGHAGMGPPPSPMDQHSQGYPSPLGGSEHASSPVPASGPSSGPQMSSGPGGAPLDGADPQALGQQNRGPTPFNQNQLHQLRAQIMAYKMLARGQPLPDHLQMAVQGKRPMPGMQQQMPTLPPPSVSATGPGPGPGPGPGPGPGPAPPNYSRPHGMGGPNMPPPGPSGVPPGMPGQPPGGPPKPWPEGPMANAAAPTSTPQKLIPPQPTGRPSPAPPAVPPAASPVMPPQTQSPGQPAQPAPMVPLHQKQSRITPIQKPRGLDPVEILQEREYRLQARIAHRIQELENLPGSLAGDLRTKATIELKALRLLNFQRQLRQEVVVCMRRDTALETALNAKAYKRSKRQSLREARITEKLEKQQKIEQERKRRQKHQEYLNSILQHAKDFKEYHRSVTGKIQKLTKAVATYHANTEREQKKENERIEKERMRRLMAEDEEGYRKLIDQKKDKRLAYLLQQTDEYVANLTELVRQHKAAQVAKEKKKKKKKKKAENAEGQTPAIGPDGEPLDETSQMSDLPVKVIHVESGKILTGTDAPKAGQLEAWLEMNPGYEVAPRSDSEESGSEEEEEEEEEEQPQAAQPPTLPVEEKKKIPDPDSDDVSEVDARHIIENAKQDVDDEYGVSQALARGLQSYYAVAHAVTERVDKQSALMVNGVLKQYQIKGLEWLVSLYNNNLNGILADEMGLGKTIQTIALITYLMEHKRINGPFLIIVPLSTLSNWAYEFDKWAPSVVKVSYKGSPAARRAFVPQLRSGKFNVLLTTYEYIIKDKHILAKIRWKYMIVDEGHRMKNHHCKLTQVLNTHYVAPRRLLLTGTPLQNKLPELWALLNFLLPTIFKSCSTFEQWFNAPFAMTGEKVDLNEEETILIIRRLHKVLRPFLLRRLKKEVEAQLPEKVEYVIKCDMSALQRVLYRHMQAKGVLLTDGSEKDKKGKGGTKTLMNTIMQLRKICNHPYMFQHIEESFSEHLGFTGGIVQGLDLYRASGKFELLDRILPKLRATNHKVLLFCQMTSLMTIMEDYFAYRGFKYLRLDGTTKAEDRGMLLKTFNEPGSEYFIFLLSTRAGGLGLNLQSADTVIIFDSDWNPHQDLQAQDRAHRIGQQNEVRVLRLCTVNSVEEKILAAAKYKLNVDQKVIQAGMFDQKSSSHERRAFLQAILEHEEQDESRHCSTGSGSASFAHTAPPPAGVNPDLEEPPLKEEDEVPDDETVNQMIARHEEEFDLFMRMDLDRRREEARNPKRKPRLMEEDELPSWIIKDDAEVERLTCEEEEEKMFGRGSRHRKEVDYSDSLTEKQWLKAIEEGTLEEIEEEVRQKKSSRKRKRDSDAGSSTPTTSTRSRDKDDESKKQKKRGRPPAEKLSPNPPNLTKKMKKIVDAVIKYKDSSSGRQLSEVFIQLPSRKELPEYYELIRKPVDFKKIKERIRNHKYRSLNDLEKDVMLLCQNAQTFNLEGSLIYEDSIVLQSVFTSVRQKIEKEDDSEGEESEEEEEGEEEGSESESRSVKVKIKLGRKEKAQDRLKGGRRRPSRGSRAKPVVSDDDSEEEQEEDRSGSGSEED
Summary of the method: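 Degradation was scored from HiBiT lytic luminescence, scaled between DMSO-treated wells and wells given 2 μM of a standard BRM/BRG1 degrader. Cells were a stable HeLa HiBiT-BRG1/LgBiT line dosed for 24 h, ten concentrations in 3-fold steps from 30 μM, in duplicate.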

Compound | BRM HiBit Degradation Maximum (%) (HiBit-BRM fusion protein) | DC50 (HiBit-BRM fusion protein) | Dmax [1] | DC50 [1]
Cc1ncsc1-c1ccc([C@H](C)NC(=O)[C@@H]2C[C@@H](O)CN2C(=O)[C@@H](c2cc(OCCN3CCC(c4sc5nnc(-c6ccccc6O)cc5c4Cl)CC3)no2)C(C)C)cc1 [Compound 90, (2S,4R)-1-((R)-2-(3-(2-(4-(5-chloro-3-(2-hydroxyphenyl)thieno[2,3-c]pyridazin-6-yl)piperidin-1-yl)ethoxy)isoxazol-5-yl)-3-methylbutanoyl)-4-hydroxy-N-((S)-1-(4-(4-methylthiazol-5-yl)phenyl)ethyl)pyrrolidine-2-carboxamide] | A (“A” indicates maximum degradation ≥ 75%) | ≥ 0.01 µM | < 50% | ≥ 1 µM
Cc1ncsc1-c1ccc([C@H](C)NC(=O)[C@@H]2C[C@@H](O)CN2C(=O)[C@@H](c2cc(OCC(=O)N3CCc4sc5nnc(-c6ccccc6O)cc5c4C3)no2)C(C)C)cc1 [Compound 91, (2S,4R)-4-hydroxy-1-((R)-2-(3-(2-(3-(2-hydroxyphenyl)-7,8-dihydropyrido[3′,4′:4, 5]thieno[2,3-c]pyridazin-6(5H)-yl)-2-oxoethoxy)isoxazol-5-yl)-3-methylbutanoyl)-N-((S)-1-(4-(4-methylthiazol-5-yl)phenyl)ethyl)pyrrolidine-2-carboxamide] | C (“C” indicates maximum degradation < 50%) | ≥ 1 µM | < 50% | ≥ 1 µM
Cc1ncsc1-c1ccc([C@H](C)NC(=O)[C@@H]2C[C@@H](O)CN2C(=O)[C@@H](c2cc(N3CCC(CN4CCc5sc6nnc(-c7ccccc7O)cc6c5C4)CC3)no2)C(C)C)cc1 [Compound 92, (2S,4R)-4-hydroxy-1-((R)-2-(3-(4-((3-(2-hydroxyphenyl)-7,8-dihydropyrido[3′,4′:4,5]thieno[2,3-c]pyridazin-6(5H)-yl)methyl)piperidin-1-yl)isoxazol-5-yl)-3-methylbutanoyl)-N-((S)-1-(4-(4-methylthiazol-5-yl)phenyl)ethyl)pyrrolidine-2-carboxamide] | C (“C” indicates maximum degradation < 50%) | ≥ 1 µM | ≥ 50% | ≥ 1 µM
Cc1ncsc1-c1ccc([C@H](C)NC(=O)[C@@H]2C[C@@H](O)CN2C(=O)[C@@H](c2cc(OCC(=O)N3CCC(c4sc5nnc(-c6ccccc6O)cc5c4C)CC3)no2)C(C)C)cc1 [Compound 93, (2S,4R)-4-hydroxy-1-((R)-2-(3-(2-(4-(3-(2-hydroxyphenyl)-5-methylthieno[2,3-c]pyridazin-6-yl)piperidin-1-yl)-2-oxoethoxy)isoxazol-5-yl)-3-methylbutanoyl)-N-((S)-1-(4-(4-methylthiazol-5-yl)phenyl)ethyl)pyrrolidine-2-carboxamide] | A (“A” indicates maximum degradation ≥ 75%) | ≥ 0.01 µM | < 50% | ≥ 1 µM
Cc1ncsc1-c1ccc([C@H](C)NC(=O)[C@@H]2C[C@@H](O)CN2C(=O)[C@@H](c2cc(N3CCC(CN4CCC(c5sc6nnc(-c7ccccc7O)cc6c5C)CC4)CC3)no2)C(C)C)cc1 [Compound 94, (2S,4R)-4-hydroxy-1-((R)-2-(3-(4-((4-(3-(2-hydroxyphenyl)-5-methylthieno[2,3-c]pyridazin-6-yl)piperidin-1-yl)methyl)piperidin-1-yl)isoxazol-5-yl)-3-methylbutanoyl)-N-((S)-1-(4-(4-methylthiazol-5-yl)phenyl)ethyl)pyrrolidine-2-carboxamide] | A (“A” indicates maximum degradation ≥ 75%) | < 0.01 µM | < 50% | ≥ 1 µM
Cc1ncsc1-c1ccc([C@H](C)NC(=O)[C@@H]2C[C@@H](O)CN2C(=O)[C@@H](c2cc(OCCCN3CCC(c4sc5nnc(-c6ccccc6O)cc5c4C)CC3)no2)C(C)C)cc1 [Compound 95, (2S,4R)-4-hydroxy-1-((R)-2-(3-(3-(4-(3-(2-hydroxyphenyl)-5-methylthieno[2,3-c]pyridazin-6-yl)piperidin-1-yl)propoxy)isoxazol-5-yl)-3-methylbutanoyl)-N-((S)-1-(4-(4-methylthiazol-5-yl)phenyl)ethyl)pyrrolidine-2-carboxamide] | A (“A” indicates maximum degradation ≥ 75%) | < 0.01 µM | < 50% | ≥ 1 µM
Cc1ncsc1-c1ccc([C@H](C)NC(=O)[C@@H]2C[C@@H](O)CN2C(=O)[C@@H](c2cc(N3CCC(N4CCC(c5sc6nnc(-c7ccccc7O)cc6c5C)CC4)CC3)no2)C(C)C)cc1 [Compound 96, (2S,4R)-4-hydroxy-1-((R)-2-(3-(4-(3-(2-hydroxyphenyl)-5-methylthieno[2,3-c]pyridazin-6-yl)-[1,4'-bipiperidin]-1'-yl)isoxazol-5-yl)-3-methylbutanoyl)-N-((S)-1-(4-(4-methylthiazol-5-yl)phenyl)ethyl)pyrrolidine-2-carboxamide] | A (“A” indicates maximum degradation ≥ 75%) | < 0.01 µM | < 50% | ≥ 1 µM
Cc1ncsc1-c1ccc([C@H](C)NC(=O)[C@@H]2C[C@@H](O)CN2C(=O)[C@@H](c2cc(OCCN3CCC(c4cc5nnc(-c6ccccc6O)cc5s4)CC3)no2)C(C)C)cc1 [Compound 97, (2S,4R)-4-hydroxy-1-((R)-2-(3-(2-(4-(3-(2-hydroxyphenyl)thieno[3,2-c]pyridazin-6-yl)piperidin-1-yl)ethoxy)isoxazol-5-yl)-3-methylbutanoyl)-N-((S)-1-(4-(4-methylthiazol-5-yl)phenyl)ethyl)pyrrolidine-2-carboxamide] | A (“A” indicates maximum degradation ≥ 75%) | < 0.01 µM | < 50% | ≥ 1 µM
Cc1ncsc1-c1ccc([C@H](C)NC(=O)[C@@H]2C[C@@H](O)CN2C(=O)[C@@H](c2cc(N3CCC(C(=O)N4CCC(c5sc6nnc(-c7ccccc7O)cc6c5C)CC4)CC3)no2)C(C)C)cc1 [Compound 98, (2S,4R)-4-hydroxy-1-((R)-2-(3-(4-(4-(3-(2-hydroxyphenyl)-5-methylthieno[2,3-c]pyridazin-6-yl)piperidine-1-carbonyl)piperidin-1-yl)isoxazol-5-yl)-3-methylbutanoyl)-N-((S)-1-(4-(4-methylthiazol-5-yl)phenyl)ethyl)pyrrolidine-2-carboxamide] | A (“A” indicates maximum degradation ≥ 75%) | < 0.01 µM | ≥ 50% | ≥ 1 µM
Cc1ncsc1-c1ccc([C@H](C)NC(=O)[C@@H]2C[C@@H](O)CN2C(=O)[C@@H](c2cc(N3CCC(C(=O)N4CC(c5cc6nnc(-c7ccccc7O)cc6s5)C4)CC3)no2)C(C)C)cc1 [Compound 99, (2S,4R)-4-hydroxy-1-((R)-2-(3-(4-(3-(3-(2-hydroxyphenyl)thieno[3,2-c]pyridazin-6-yl)azetidine-1-carbonyl)piperidin-1-yl)isoxazol-5-yl)-3-methylbutanoyl)-N-((S)-1-(4-(4-methylthiazol-5-yl)phenyl)ethyl)pyrrolidine-2-carboxamide] | A (“A” indicates maximum degradation ≥ 75%) | ≥ 0.01 µM | < 50% | ≥ 1 µM
Cc1ncsc1-c1ccc([C@H](C)NC(=O)[C@@H]2C[C@@H](O)CN2C(=O)[C@@H](c2cc(OCCN3CCC(N4CC(c5sc6nnc(-c7ccccc7O)cc6c5C)C4)CC3)no2)C(C)C)cc1 [Compound 100, (2S,4R)-4-hydroxy-1-((R)-2-(3-(2-(4-(3-(3-(2-hydroxyphenyl)-5-methylthieno[2,3-c]pyridazin-6-yl)azetidin-1-yl)piperidin-1-yl)ethoxy)isoxazol-5-yl)-3-methylbutanoyl)-N-((S)-1-(4-(4-methylthiazol-5-yl)phenyl)ethyl)pyrrolidine-2-carboxamide] | A (“A” indicates maximum degradation ≥ 75%) | ≥ 0.01 µM | < 50% | ≥ 1 µM
Cc1ncsc1-c1ccc([C@H](C)NC(=O)[C@@H]2C[C@@H](O)CN2C(=O)[C@@H](c2cc(OCCN3CCC(c4csc5nnc(-c6ccccc6O)cc45)CC3)no2)C(C)C)cc1 [Compound 101, (2S,4R)-4-hydroxy-1-((R)-2-(3-(2-(4-(3-(2-hydroxyphenyl)thieno[2,3-c]pyridazin-5-yl)piperidin-1-yl)ethoxy)isoxazol-5-yl)-3-methylbutanoyl)-N-((S)-1-(4-(4-methylthiazol-5-yl)phenyl)ethyl)pyrrolidine-2-carboxamide] | C (“C” indicates maximum degradation < 50%) | ≥ 1 µM | < 50% | ≥ 1 µM
Cc1ncsc1-c1ccc([C@H](C)NC(=O)[C@@H]2C[C@@H](O)CN2C(=O)[C@@H](c2cc(OCCN3CC(c4csc5nnc(-c6ccccc6O)cc45)C3)no2)C(C)C)cc1 [Compound 102, (2S,4R)-4-hydroxy-1-((R)-2-(3-(2-(3-(3-(2-hydroxyphenyl)thieno[2,3-c]pyridazin-5-yl)azetidin-1-yl)ethoxy)isoxazol-5-yl)-3-methylbutanoyl)-N-((S)-1-(4-(4-methylthiazol-5-yl)phenyl)ethyl)pyrrolidine-2-carboxamide] | C (“C” indicates maximum degradation < 50%) | ≥ 1 µM | < 50% | ≥ 1 µM
